Legend:
Sprague-Dawley rats = assay: Open Field Test (OFT), locomotion; format: in vivo, rat; conditions: for Open field track length: rats given LPS 1 mg/kg SC, label LPS = LPS + Vehicle, label Luma = Luma 1 mg/kg IP before and after LPS, text: open field track length in meters
Description: Behavioral Evaluation. All behavioral tests are performed in the morning with adult male Sprague-Dawley rats (n=9-11 per group for the experiments with LPS, and n=13-14 per group for the naïve rats).
Open Field Test (OFT). Rats are placed in an open field box (76.5×76.5×40 cm^3) under dim lighting and locomotor activity over a 10 minute period is measured using ANY-Maze Software (Stoelting Co., Wood Dale, IL).
Locomotion in an open field (track length in meters) is also measured as a control. As shown in the following table, locomotor activity is […] regardless of the group: […]

[1] = tested on: hippocampal cytokine mRNA (Il1b, Il6, Tnfa, Il10); assay: Hippocampal cytokine mRNA (qRT-PCR) after co-injection of LPS and lumateperone; format: in vivo, mouse; conditions: mice, 2 h, relative change normalized to control (Dct method)
Description: All other reagents are obtained in the highest purity available from Sigma-Aldrich (St. Louis, MO) unless otherwise noted. […] Some rodents are given a cotreatment with a subcutaneous (SC) injection of lipopolysaccharide (LPS, 500 μg/kg; Sigma-Aldrich, ref #0127:B8) diluted in 0.9% injectable saline while control group animals receive injections of all vehicles matching the experimental conditions. […] On day 2, either no injection for naïve rats, or saline or LPS is injected (1 mg/kg, SC).
Animals. Adult, male C57BL/6 mice weighing 28-30 grams at the time of the experiment are housed in groups of 4 or 5 in small cages. Adult, male Sprague-Dawley rats weighing 175-200 grams at the time of arrival after shipping are housed in pairs. All animals are housed under standard laboratory housing conditions with a 12-hour light/dark cycle and ad libitum access to food and water.
Tissue Collection. […] Rats are euthanized 18 hours after LPS injection for sample collection. Hippocampi from mice and rats are rapidly dissected under RNAse-free conditions and placed in 1.5 mL Eppendorf tubes. When appropriate, samples are snap frozen in liquid nitrogen prior to storage at −80° C. until further analysis. Trunk blood is collected from mice into serum collection tubes, allowed to clot at room temperature for 1 hour, then centrifuged at 1,500 g for 10 minutes at 4° C.
Quantitative Real-Time PCR. Mouse hippocampal tissue is homogenized with glass beads in 1 mL of TRIzol reagent using a BeadBeater (Biospec Products, Bartlesville, OK). Heavy phase-lock gel tubes enabled separation of phases following the addition of 400 μL chloroform to the sample and centrifugation at 12,000 rpm for 10 minutes at room temperature. RNA is extracted using Qiagen Rneasy kit (Qiagen, Hilden, Germany). For cDNA synthesis, 2 μg of total RNA is used (SuperScript IV Reverse Transcriptase; ThermoFisher Scientific, Waltham, MA). The purity and concentration of RNA is measured with a Nanodrop spectrophotometer; the optical density (OD) 260/280 and OD 260/230 are within 1.8-2.3. In the hippocampus, 4 key markers of pro- and anti-inflammatory cytokines and chemokines (Il1b: ID Mm00434228_m1, Tnfa: ID Mm00443258_m1, 116: ID Mm00446190_m1, and I110: ID Mm01288386_m1; ThermoFisher Scientific) are initially chosen for analysis (n=5-12 per group). In subsequent experiments, the transcripts for other markers of inflammation are chosen for analysis including Icam1 (ID Mm00516023_m1; a cell adhesion molecule involved in immune cell migration), Cldn5 (ID Mm00727012_s1; a tight junctions protein), colony stimulating factor 1 (Csf1: ID Mm00432686_m1; a factor that regulates microglia function) and its receptor Csf1r (ID Mm01266652_m1), and the nucleotide binding and oligomerization domain-like receptor family pyrin domain-containing 3 inflammasome complex (Nlrp3: Mm00840904_m1). Gapdh (ID Mm99999915_g1) is chosen as a housekeeping gene. QuantStudio 7 (ThermoFisher Scientific) is used for analyzing the plates (MicroAmp Optical 384-well plates; Applied Biosystems, Waltham, MA, and ThermoFisher Scientific) that are loaded with TaqMan Universal Master Mix II without uracil-DNA glycosylate in a 20 μl reaction volume using 100 ng cDNA per well. All mRNAs are measured by qRT-PCR on ABI Prism 7900HT system using TaqMan Gene Expression Assays. Ct values of genes of interest are normalized to that of the reference gene (Gapdh).
Specific cytokines are elevated in serum or plasma of patients with MDD and other psychiatric disorders. Here, the gene and protein expression of a subset of pro- and anti-inflammatory cytokines is measured in mouse brain in response to an inflammatory challenge using a single dose of LPS (500 μg/kg) to induce acute brain inflammation. […] The results are shown in Table 1A as relative change in mRNA levels for each cytokine gene (Il1b, Il6, Tnfa, Il10) normalized to the control group using the Dct method (n=5-12 per group): […]

[2] = Luma 0.3 mg/kg IP co-injected with LPS 500 μg/kg SC
[3] = Luma 3 mg/kg IP co-injected with LPS 500 μg/kg SC
[4] = Luma 8 mg/kg IP co-injected with LPS 500 μg/kg SC

Compound	Open field track length (Sprague-Dawley rats)	Hippocampal cytokine mRNA expression IL-1b ([1]; LPS 500 μg/kg SC + vehicle)	Hippocampal cytokine mRNA expression IL-6 ([1]; LPS 500 μg/kg SC + vehicle)	Hippocampal cytokine mRNA expression IL-10 ([1]; LPS 500 μg/kg SC + vehicle)	Hippocampal cytokine mRNA expression TNF-alpha ([1]; LPS 500 μg/kg SC + vehicle)	OFT locomotion (Sprague-Dawley rats; naïve rats, Luma 1 mg/kg IP on days 1 and 3, 10 minutes)	Hippocampal cytokine mRNA expression IL-6 [1, 2]	Hippocampal cytokine mRNA expression IL-10 [1, 2]	Hippocampal cytokine mRNA expression TNF-alpha [1, 2]	Hippocampal cytokine mRNA expression IL-1b [1, 3]	Hippocampal cytokine mRNA expression IL-6 [1, 3]	Hippocampal cytokine mRNA expression TNF-alpha [1, 3]	Hippocampal cytokine mRNA expression IL-1b [1, 4]	Hippocampal cytokine mRNA expression IL-6 [1, 4]	Hippocampal cytokine mRNA expression TNF-alpha [1, 4]
lipopolysaccharide [LPS, reference compound]	12.81	2.88	1.03	0.43	1.75										
CN1CCN2c3c(cccc31)[C@@H]1CN(CCCC(=O)c3ccc(F)cc3)CC[C@@H]12 [Luma, lumateperone]	12.27					32.8 ± 10.2 m	0.52	−0.28	0.43	0.85	0.15	−0.09	0.43	0.16	−0.24
